Source: US5604294A, “Macrocyclic immunomodulators” (priority 1994, dated 1997)

Tested on: human mixed lymphocyte reaction (MLR)
Experiment: human mixed lymphocyte reaction (MLR) assay (immunosuppressant activity)
Format: cell-based
Details: Table 1
Method: The immunosuppressant activity of the compounds of the present invention was determined using the human mixed lymphocyte reaction (MLR) assay described by Kino, T. et al. in Transplantation Proceedings, XIX(5):36-39,Suppl.

Row | Structure (SMILES) | IC50 (Lymphocyte) [nM] | IC50 [nM]
1 | CC[C@@H]1/C=C(\C)C[C@H](C)C[C@H](OC)[C@H]2O[C@@](O)(C(=O)C(=O)N3CCCC[C@H]3C(=O)O[C@H](/C(C)=C/[C@@H]3CC[C@@H](O)[C@H](OC)C3)[C@H](C)C(N3CCN(Cc4ccccc4)CC3)CC1=O)[C@H](C)C[C@@H]2OC (stereo partly drawn) [Example 16] | 191 | 
2 | CC[C@@H]1/C=C(\C)C[C@H](C)C[C@H](OC)[C@H]2O[C@@](O)(C(=O)C(=O)N3CCCC[C@H]3C(=O)O[C@H](/C(C)=C/[C@@H]3CC[C@@H](O)[C@H](OC)C3)[C@H](C)C(N3CCN(C)CC3)CC1=O)[C@H](C)C[C@@H]2OC (stereo partly drawn) [Example 17] | 47.4 | 
3 | CC[C@@H]1/C=C(\C)C[C@H](C)C[C@H](OC)[C@H]2O[C@@](O)(C(=O)C(=O)N3CCCC[C@H]3C(=O)O[C@H](/C(C)=C/[C@@H]3CC[C@@H](O)[C@H](OC)C3)[C@H](C)C=CC1=O)[C@H](C)C[C@@H]2OC [Example 3] | 80 | 
4 | CC[C@@H]1/C=C(\C)C[C@H](C)C[C@H](OC)[C@H]2O[C@@](O)(C(=O)C(=O)N3CCCC[C@H]3C(=O)O[C@H](/C(C)=C/[C@@H]3CC[C@@H](O)[C@H](OC)C3)[C@H](C)C(N3CCN(c4ccccc4)CC3)CC1=O)[C@H](C)C[C@@H]2OC (stereo partly drawn) [Example 18] | 119 | 
5 | CC[C@@H]1/C=C(\C)C(O)[C@H](C)C[C@H](OC)[C@H]2O[C@@](O)(C(=O)C(=O)N3CCCC[C@H]3C(=O)O[C@H](/C(C)=C/[C@@H]3CC[C@@H](OC(=O)CI)[C@H](OC)C3)[C@H](C)[C@@H](O)CC1=O)[C@H](C)C[C@@H]2OC (stereo partly drawn) [Example 26] | 125 | 
6 | CC[C@@H]1/C=C(\C)C[C@H](C)C[C@H](OC)[C@H]2O[C@@](O)(C(=O)C(=O)N3CCCC[C@H]3C(=O)O[C@H](/C(C)=C/[C@@H]3CC[C@@H](O)[C@H](OC)C3)[C@H](C)c3cc1nn3CCO)[C@H](C)C[C@@H]2OC [Example 8] | 380 | 
7 | CC[C@@H]1/C=C(\C)C[C@H](C)C[C@H](OC)[C@H]2O[C@@](O)(C(=O)C(=O)N3CCCC[C@H]3C(=O)O[C@H](/C(C)=C/[C@@H]3CC[C@@H](OP(=O)(Oc4ccccc4)Oc4ccccc4)[C@H](OC)C3)[C@H](C)[C@@H](OP(=O)(Oc3ccccc3)Oc3ccccc3)CC1=O)[C@H](C)C[C@@H]2OC [Example 10] |  | 11.1
8 | CC[C@@H]1/C=C(\C)C(O)[C@H](C)C[C@H](OC)[C@H]2O[C@@](O)(C(=O)C(=O)N3CCCC[C@H]3C(=O)O[C@H](/C(C)=C/[C@@H]3CC[C@@H](O)[C@H](OC)C3)[C@H](C)[C@@H](OC(=O)CI)CC1=O)[C@H](C)C[C@@H]2OC (stereo partly drawn) [Example 25] | 203 | 
9 | CC[C@@H]1/C=C(\C)C[C@H](C)C[C@H](OC)[C@H]2O[C@@](O)(C(=O)C(=O)N3CCCC[C@H]3C(=O)O[C@H](/C(C)=C/[C@@H]3CC[C@@H](O)[C@H](OC)C3)[C@H](C)C(=O)CC1=O)[C@H](C)C[C@@H]2OC [Example 7] | 113 | 
10 | CC[C@@H]1/C=C(\C)C[C@H](C)C[C@H](OC)[C@H]2O[C@@](O)(C(=O)C(=O)N3CCCC[C@H]3C(=O)O[C@H](/C(C)=C/[C@@H]3CC[C@@H](O)[C@H](OC)C3)[C@H](C)C(N3CCNCC3)CC1=O)[C@H](C)C[C@@H]2OC (stereo partly drawn) [Example 27] | 521 | 

Continued by falling IC50 (Lymphocyte), values first:

Row | IC50 (Lymphocyte) [nM] | Structure (SMILES) | IC50 [nM]
11 | 9.3 | CC[C@@H]1/C=C(\C)C[C@H](C)C[C@H](OC)[C@H]2O[C@@](O)(C(=O)C(=O)N3CCCC[C@H]3C(=O)O[C@H](/C(C)=C/[C@@H]3CC[C@@H](O)[C@H](OC)C3)[C@H](C)[C@@H](OC(=O)CI)CC1=O)[C@H](C)C[C@@H]2OC [Example 21] | 
12 | 1.4 | CC[C@@H]1/C=C(\C)C[C@H](C)C[C@H](OC)[C@H]2O[C@@](O)(C(=O)C(=O)N3CCCC[C@H]3C(=O)O[C@H](/C(C)=C/[C@@H]3CC[C@@H](OC(=O)CI)[C@H](OC)C3)[C@H](C)[C@@H](O)CC1=O)[C@H](C)C[C@@H]2OC [Example 23] | 
13 | 0.7 | CC[C@@H]1/C=C(\C)C[C@H](C)C[C@H](OC)[C@H]2O[C@@](O)(C(=O)C(=O)N3CCCC[C@H]3C(=O)O[C@H](/C(C)=C/[C@@H]3CC[C@@H](OC(=S)Oc4ccccc4)[C@H](OC)C3)[C@H](C)[C@@H](O)CC1=O)[C@H](C)C[C@@H]2OC [Example 1] | 
14 | 0.4 | CC[C@@H]1/C=C(\C)C[C@H](C)C[C@H](OC)[C@H]2O[C@@](O)(C(=O)C(=O)N3CCCC[C@H]3C(=O)O[C@H](/C(C)=C/[C@@H]3CCC(=O)[C@H](OC)C3)[C@H](C)[C@@H](O)CC1=O)[C@H](C)C[C@@H]2OC [Example 4] | 
15 | 0.02 | CC[C@@H]1/C=C(\C)C[C@H](C)C[C@H](OC)[C@H]2O[C@@](O)(C(=O)C(=O)N3CCCC[C@H]3C(=O)O[C@H](/C(C)=C/[C@@H]3CC[C@@H](OC(=N)C(Cl)(Cl)Cl)[C@H](OC)C3)[C@H](C)[C@@H](O)CC1=O)[C@H](C)C[C@@H]2OC [Example 9] | 
